Experiments:
[1] = tested on: Digitaria adscendens; assay: Upland field foliage treatment (Test Example 1); format: in vivo; settings: foliage treatment 14th day after sowing, wettable powder, 1 kg active ingredient per hectare, evaluated 21st day after application
Procedure, shortened: (§1)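 Weeds and crops were sown in upland soil under about 1 cm cover, and a wettable powder diluted in water was sprayed on the foliage 14 days after sowing at 1 kg active ingredient per hectare. Scoring was done 21 days after application on an index scale, where higher weed scores mean stronger herbicidal effect and lower crop scores mean greater crop safety.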

[2] = tested on: Setaria viridis; assay: Upland field foliage treatment (Test Example 1); format: in vivo; settings: foliage treatment 14th day after sowing, wettable powder, 1 kg active ingredient per hectare, evaluated 21st day after application
Procedure, shortened: as §1

[3] = tested on: Stellaria media; assay: Upland field foliage treatment (Test Example 1); format: in vivo; settings: foliage treatment 14th day after sowing, wettable powder, 1 kg active ingredient per hectare, evaluated 21st day after application
Procedure, shortened: as §1

[4] = tested on: Chenopodium album; assay: Upland field foliage treatment (Test Example 1); format: in vivo; settings: foliage treatment 14th day after sowing, wettable powder, 1 kg active ingredient per hectare, evaluated 21st day after application
Procedure, shortened: as §1

[5] = tested on: Scirpus juncoides; assay: Paddy field treatment (Test Example 3); format: in vivo; settings: paddy pot, submerged 4 cm, dropped on water surface 10th day after transplantation, 1 kg active ingredient per hectare, evaluated 21st day
Procedure, shortened: (§2)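 Weeds sown in puddled paddy soil under 4 cm water, with two-leaf Koshihikari rice transplanted at 3 cm depth. On day 10 after transplanting, wettable powder applied to the water surface at 1 kg active ingredient per hectare. Herbicidal effect and crop safety scored on an index 21 days later.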

[6] = tested on: Monochoria vaginalis; assay: Paddy field treatment (Test Example 3); format: in vivo; settings: paddy pot, submerged 4 cm, dropped on water surface 10th day after transplantation, 1 kg active ingredient per hectare, evaluated 21st day
Procedure, shortened: as §2

[7] = tested on: Ammannia multiflora; assay: Paddy field treatment (Test Example 3); format: in vivo; settings: paddy pot, submerged 4 cm, dropped on water surface 10th day after transplantation, 1 kg active ingredient per hectare, evaluated 21st day
Procedure, shortened: as §2

[8] = tested on: wheat (Triticum aestivum); assay: Upland soil treatment (Test Example 2), crop; format: in vivo; settings: soil surface treatment next day after sowing, 1 kg active ingredient per hectare, evaluated 21st day, lower index = higher safety
Procedure, shortened: (§3)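 Pre-emergence soil treatment: day after sowing, WP formulation diluted in water, applied uniformly to soil surface at 1 kg a.i./ha. Seeds sown ~1 cm deep in upland soil. Visual index read 21 d after application (weeds: high = effective; crop: low = safe).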

[9] = tested on: soybean (Glycine max); assay: Upland soil treatment (Test Example 2), crop; format: in vivo; settings: soil surface treatment next day after sowing, 1 kg active ingredient per hectare, evaluated 21st day, lower index = higher safety
Procedure, shortened: as §3

[10] = tested on: Echinochloa spp.; assay: Paddy field treatment (Test Example 3); format: in vivo, Echinochloa crusgalli; settings: paddy pot, submerged 4 cm, dropped on water surface 10th day after transplantation, 1 kg active ingredient per hectare, evaluated 21st day
Procedure, shortened: as §2

[11] = tested on: wheat (Triticum aestivum); assay: Upland field foliage treatment (Test Example 1), crop; format: in vivo; settings: foliage treatment 14th day after sowing, 1 kg active ingredient per hectare, evaluated 21st day, lower index = higher safety
Procedure, shortened: as §1

[12] = tested on: soybean (Glycine max); assay: as above; format: in vivo; settings: foliage treatment 14th day after sowing, 1 kg active ingredient per hectare, evaluated 21st day, lower index = higher safety
Procedure, shortened: as §1

[13] = tested on: rice (Oryza sative, variety: Koshihikari); assay: Paddy field treatment (Test Example 3), crop; format: in vivo, Oryza sativa; settings: transplanted rice two-leaf period, water surface treatment 10th day after transplantation, 1 kg active ingredient per hectare, evaluated 21st day, lower index = higher safety
Procedure, shortened: as §2

[14] = tested on: Digitaria adscendens; assay: Upland soil treatment (Test Example 2); format: in vivo; settings: soil surface treatment next day after sowing, wettable powder, 1 kg active ingredient per hectare, evaluated 21st day after application
Procedure, shortened: as §3

[15] = tested on: Setaria viridis; assay: Upland soil treatment (Test Example 2); format: in vivo; settings: soil surface treatment next day after sowing, wettable powder, 1 kg active ingredient per hectare, evaluated 21st day after application
Procedure, shortened: as §3

[16] = tested on: Stellaria media; assay: Upland soil treatment (Test Example 2); format: in vivo; settings: soil surface treatment next day after sowing, wettable powder, 1 kg active ingredient per hectare, evaluated 21st day after application
Procedure, shortened: as §3

[17] = tested on: Chenopodium album; assay: Upland soil treatment (Test Example 2); format: in vivo; settings: soil surface treatment next day after sowing, wettable powder, 1 kg active ingredient per hectare, evaluated 21st day after application
Procedure, shortened: as §3

Row | SMILES | Herbicidal activity Digitaria adscendens [1] | Herbicidal activity Setaria viridis [2] | Herbicidal activity Stellaria media [3] | Herbicidal activity Chenopodium album [4] | Herbicidal activity Scirpus juncoides [5] | Herbicidal activity Monochoria vaginalis [6] | Herbicidal activity Ammannia multiflora [7] | Herbicidal activity Triticum aestivum [8] | Herbicidal activity Glycine max [9] | Herbicidal activity Echinochloa spp. [10] | Herbicidal activity Triticum aestivum [11] | Herbicidal activity Glycine max [12] | Herbicidal activity Oryza sativa [13] | Herbicidal activity Digitaria adscendens [14] | Herbicidal activity Setaria viridis [15] | Herbicidal activity Stellaria media [16] | Herbicidal activity Chenopodium album [17]
1 | COC=C(Cn1nc(-c2ccccc2)c(C)c1Br)C(=O)OC [Compound 46] | 4 (herbicidal effect of not less than 70% by weight and less than 90% by weight) | 4 (herbicidal effect of not less than 70% by weight and less than 90% by weight) | 5 (herbicidal effect of not less than 90% by weight) | 5 (herbicidal effect of not less than 90% by weight) | 3 (herbicidal effect of not less than 50% by weight and less than 70% by weight) | 3 (herbicidal effect of not less than 50% by weight and less than 70% by weight) | 3 (herbicidal effect of not less than 50% by weight and less than 70% by weight) | 0 (herbicidal effect of not less than 0% by weight and less than 10% by weight) | 0 (herbicidal effect of not less than 0% by weight and less than 10% by weight) | 3 (herbicidal effect of not less than 50% by weight and less than 70% by weight) | 0 (herbicidal effect of not less than 0% by weight and less than 10% by weight) | 1 (herbicidal effect of not less than 10% by weight and less than 30% by weight) | 0 (herbicidal effect of not less than 0% by weight and less than 10% by weight) | 4 (herbicidal effect of not less than 70% by weight and less than 90% by weight) | 4 (herbicidal effect of not less than 70% by weight and less than 90% by weight) | 4 (herbicidal effect of not less than 70% by weight and less than 90% by weight) | 4 (herbicidal effect of not less than 70% by weight and less than 90% by weight)
2 | COC=C(Cn1nc(-c2ccccc2Cl)c(Br)c1C)C(=O)OC [Compound 27] | 5 (herbicidal effect of not less than 90% by weight) | 4 (herbicidal effect of not less than 70% by weight and less than 90% by weight) | 5 (herbicidal effect of not less than 90% by weight) | 5 (herbicidal effect of not less than 90% by weight) | 5 (herbicidal effect of not less than 90% by weight) | 5 (herbicidal effect of not less than 90% by weight) | 5 (herbicidal effect of not less than 90% by weight) | 0 (herbicidal effect of not less than 0% by weight and less than 10% by weight) | 0 (herbicidal effect of not less than 0% by weight and less than 10% by weight) | 5 (herbicidal effect of not less than 90% by weight) | 0 (herbicidal effect of not less than 0% by weight and less than 10% by weight) | 0 (herbicidal effect of not less than 0% by weight and less than 10% by weight) | 1 (herbicidal effect of not less than 10% by weight and less than 30% by weight) | 5 (herbicidal effect of not less than 90% by weight) | 4 (herbicidal effect of not less than 70% by weight and less than 90% by weight) | 5 (herbicidal effect of not less than 90% by weight) | 4 (herbicidal effect of not less than 70% by weight and less than 90% by weight)
3 | COC=C(Cn1nc(-c2ccc(Cl)cc2Cl)cc1C)C(=O)OC [Compound 7] | 4 (herbicidal effect of not less than 70% by weight and less than 90% by weight) | 4 (herbicidal effect of not less than 70% by weight and less than 90% by weight) | 5 (herbicidal effect of not less than 90% by weight) | 5 (herbicidal effect of not less than 90% by weight) | 3 (herbicidal effect of not less than 50% by weight and less than 70% by weight) | 4 (herbicidal effect of not less than 70% by weight and less than 90% by weight) | 4 (herbicidal effect of not less than 70% by weight and less than 90% by weight) | 0 (herbicidal effect of not less than 0% by weight and less than 10% by weight) | 0 (herbicidal effect of not less than 0% by weight and less than 10% by weight) | 4 (herbicidal effect of not less than 70% by weight and less than 90% by weight) | 0 (herbicidal effect of not less than 0% by weight and less than 10% by weight) | 0 (herbicidal effect of not less than 0% by weight and less than 10% by weight) | 0 (herbicidal effect of not less than 0% by weight and less than 10% by weight) | 4 (herbicidal effect of not less than 70% by weight and less than 90% by weight) | 5 (herbicidal effect of not less than 90% by weight) | 4 (herbicidal effect of not less than 70% by weight and less than 90% by weight) | 4 (herbicidal effect of not less than 70% by weight and less than 90% by weight)
4 | COC=C(Cn1cc(C)c(-c2ccccc2)n1)C(=O)OC [Compound 13] | 5 (herbicidal effect of not less than 90% by weight) | 5 (herbicidal effect of not less than 90% by weight) | 5 (herbicidal effect of not less than 90% by weight) | 5 (herbicidal effect of not less than 90% by weight) | 5 (herbicidal effect of not less than 90% by weight) | 5 (herbicidal effect of not less than 90% by weight) | 5 (herbicidal effect of not less than 90% by weight) | 0 (herbicidal effect of not less than 0% by weight and less than 10% by weight) | 0 (herbicidal effect of not less than 0% by weight and less than 10% by weight) | 5 (herbicidal effect of not less than 90% by weight) | 0 (herbicidal effect of not less than 0% by weight and less than 10% by weight) | 0 (herbicidal effect of not less than 0% by weight and less than 10% by weight) | 0 (herbicidal effect of not less than 0% by weight and less than 10% by weight) | 5 (herbicidal effect of not less than 90% by weight) | 5 (herbicidal effect of not less than 90% by weight) | 5 (herbicidal effect of not less than 90% by weight) | 5 (herbicidal effect of not less than 90% by weight)
